Test systems include SF-295 CNS; SK-MEL-28 melanoma; MOLT-4 leukemia; OVCAR-5 ovarian; OVCAR-8 ovarian; KM12 colon; SF-539 CNS; RXF 393 renal; MDA-MB-435; DU-145 prostate.
Holding throughout (assay): growth of human tumour cells (NCI), 48 h

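Each compound was tested at five concentrations against cells in 96-well plates for 48 hours. TGI: concentration producing complete growth inhibition.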

Regarding `CC(=O)C(CN(C)C)C(c1ccccc1)c1c(O)c2ccccc2oc1=O` (centres undefined), the TGI with SF-295 CNS, in the assay on SK-MEL-28 melanoma, with MOLT-4 leukemia, in the assay with OVCAR-5 ovarian, in the assay with OVCAR-8 ovarian and in the assay on KM12 colon was over 100 µM each time. In addition, the TGI in the assay with SF-539 CNS and in the assay with RXF 393 renal was over 100 µM throughout.
With `NCCSCc1ccccc1Cl`, the TGI with MDA-MB-435 was over 100 µM; in the assay with SF-295 CNS it was over 100 µM; with DU-145 prostate it was over 100 µM; with SK-MEL-28 melanoma, over 100 µM; in the assay with MOLT-4 leukemia, 86.3 µM; in the assay with OVCAR-5 ovarian it was over 100 µM. Also, the TGI in the assay with OVCAR-8 ovarian, in the assay on KM12 colon and in the assay with RXF 393 renal was over 100 µM in each case.
For `Cc1c(N/C=C(\C#N)C(=O)c2ccc(Cl)cc2)c(=O)n(-c2ccccc2)n1C`, the TGI in the assay on MDA-MB-435, in the assay on SF-295 CNS, in the assay on DU-145 prostate, in the assay with SK-MEL-28 melanoma, in the assay with OVCAR-5 ovarian and with OVCAR-8 ovarian was over 100 µM throughout. The TGI in the assay with KM12 colon, in the assay on SF-539 CNS and in the assay with RXF 393 renal was over 100 µM each time.
Take `O=S(=O)(c1ccccc1)n1cc(C[P+](c2ccccc2)(c2ccccc2)c2ccccc2)c2ccccc21`: the TGI in the assay with SF-295 CNS is 24.3 µM; with SK-MEL-28 melanoma, 14.2 µM; with MOLT-4 leukemia, 23.6 µM; in the assay with OVCAR-5 ovarian it was 32.2 µM; with OVCAR-8 ovarian, 12.6 µM; with KM12 colon it was 13.1 µM. Further, the TGI in the assay with SF-539 CNS was 16.8 µM; in the assay with RXF 393 renal it was 20.3 µM.
In the case of `CN(C)C=NCCN1CCOCC1`, the TGI with MDA-MB-435, with SF-295 CNS, in the assay on DU-145 prostate, with SK-MEL-28 melanoma, with MOLT-4 leukemia and in the assay on OVCAR-5 ovarian was over 100 µM each time. Also, the TGI in the assay with OVCAR-8 ovarian, in the assay with SF-539 CNS and in the assay on RXF 393 renal was over 100 µM throughout.
Take `Cc1ccc(N2CCN(CCC(=O)O)CC2)cc1`: the TGI in the assay on MDA-MB-435, in the assay on SF-295 CNS, with DU-145 prostate, in the assay with SK-MEL-28 melanoma, in the assay with OVCAR-5 ovarian and with OVCAR-8 ovarian was over 100 µM throughout. The TGI in the assay with KM12 colon, in the assay with SF-539 CNS and in the assay with RXF 393 renal was over 100 µM in each case.
Turning to `NCCCCC(=O)c1cccnc1`, the TGI in the assay with SF-295 CNS, in the assay with SK-MEL-28 melanoma, in the assay with MOLT-4 leukemia, with OVCAR-5 ovarian, with OVCAR-8 ovarian and in the assay with KM12 colon was over 100 µM in each case. Besides, the TGI in the assay with SF-539 CNS is over 100 µM.
Take `CN(C)S(=O)(=O)n1cnc(CO)c1`: the TGI in the assay on MDA-MB-435, in the assay on SF-295 CNS, in the assay on SK-MEL-28 melanoma, in the assay with MOLT-4 leukemia, in the assay on OVCAR-5 ovarian and in the assay with KM12 colon was over 100 µM throughout. In addition, the TGI in the assay on SF-539 CNS and in the assay with RXF 393 renal was over 100 µM each time.
Regarding `c1cncc(O[Si](Oc2cccnc2)(Oc2cccnc2)Oc2cccnc2)c1`, the TGI in the assay on SF-295 CNS, in the assay on SK-MEL-28 melanoma, in the assay on MOLT-4 leukemia, in the assay with OVCAR-5 ovarian, in the assay on OVCAR-8 ovarian and with KM12 colon was over 100 µM each time. Besides, the TGI in the assay on SF-539 CNS and in the assay with RXF 393 renal was over 100 µM in each case.
Turning to `O=C(O)CN1CCN(CC(=O)N2CCN(C(=O)OCc3ccccc3)CC2)CCN(CC(=O)O)CCN(CC(=O)N2CCN(C(=O)OCc3ccccc3)CC2)CC1`, the TGI in the assay with MDA-MB-435, in the assay on SF-295 CNS, in the assay with DU-145 prostate, in the assay with SK-MEL-28 melanoma, with MOLT-4 leukemia and in the assay on OVCAR-5 ovarian was over 100 µM throughout. Moreover, the TGI in the assay on OVCAR-8 ovarian, in the assay on KM12 colon and in the assay on SF-539 CNS was over 100 µM each time.
As for `CC(C)(C)OC/C=C1\C(=O)O[C@H]2C[C@@H](O[Si](C)(C)C(C)(C)C)C[C@@H]12`, the TGI with MDA-MB-435, in the assay on SF-295 CNS, in the assay with DU-145 prostate, in the assay on SK-MEL-28 melanoma, in the assay on MOLT-4 leukemia and with OVCAR-5 ovarian was over 100 µM each time. Also, the TGI in the assay with OVCAR-8 ovarian, in the assay on KM12 colon and in the assay with RXF 393 renal was over 100 µM throughout.
As to `COc1ccc(N=Nc2c(C)c(C#N)c(=S)n(C3OC(CO)C(O)C(O)C3O)c2C)cc1` (centres undefined), the TGI with MDA-MB-435 was over 100 µM; in the assay with SF-295 CNS, over 100 µM; in the assay on DU-145 prostate, over 100 µM; in the assay on SK-MEL-28 melanoma it was over 100 µM; with MOLT-4 leukemia, 84.6 µM; in the assay on OVCAR-5 ovarian, over 100 µM. For the same compound, the TGI in the assay on KM12 colon, with SF-539 CNS and with RXF 393 renal was over 100 µM in each case.
Consider `CCCCCCCCCCCCOc1ccc(/C=C/C2=[N+](CCCl)CCO2)cc1`, for which the TGI in the assay on MDA-MB-435, with SF-295 CNS, with DU-145 prostate, in the assay with SK-MEL-28 melanoma, in the assay with MOLT-4 leukemia and in the assay with OVCAR-5 ovarian was over 100 µM each time. Also, the TGI in the assay on OVCAR-8 ovarian, with KM12 colon and in the assay on SF-539 CNS was over 100 µM each time.
For the compound `CC(C)C(C/C=C1/CC(CO)(COC(=O)c2ccccc2)OC1=O)C(C)C` (centres undefined), the TGI in the assay on MDA-MB-435 amounted to 95.5 µM; in the assay on SF-295 CNS, 25.7 µM; in the assay with SK-MEL-28 melanoma, 27.8 µM; in the assay with MOLT-4 leukemia, 47 µM; in the assay on OVCAR-5 ovarian, 31.2 µM; in the assay on OVCAR-8 ovarian, 48.5 µM. Further, the TGI in the assay on KM12 colon was found to be 31.7 µM; in the assay with SF-539 CNS it was 16.1 µM; in the assay with RXF 393 renal, 31.2 µM.
Consider `SCc1ccc(CS)s1`, for which the TGI in the assay with MDA-MB-435, in the assay on SF-295 CNS, with DU-145 prostate, in the assay on SK-MEL-28 melanoma, in the assay on MOLT-4 leukemia and in the assay with OVCAR-5 ovarian was over 100 µM each time. Moreover, the TGI in the assay on OVCAR-8 ovarian, with KM12 colon and in the assay on SF-539 CNS was over 100 µM throughout.

The values are drawn from PubChem BioAssay (NCI).
